{"source": "patent US20200323954A1", "about": "“METHODS AND COMPOSITIONS FOR REDUCING GUT ISCHEMIA/REPERFUSION-INDUCED INJURY” (PanTheryx, Inc., priority 2019, published 2020)", "key": {"AGS cells [1]": {"test_system": "AGS cells", "assay": "Apoptotic and protective pathways after H/R in AGS cells", "assay_type": "cell-based, human", "details": "Hyp 1 h/Rep 24 h + PSTI, mean +/− SEM", "procedure": "(§1) Hypoxia (Ischemia)/Normoxia (Reperfusion) (H/R) protocols for in vitro studies: For all experiments AGS, Caco-2 and RIE1 cells were set up in plates as described in specific methods. Cells were used at 70-80% confluence for cell injury/death assessment and as confluent monolayers for permeability studies. To induce “ischemia”, cells were placed in a hypoxic incubator (2% 02) for specified time and to mimic reperfusion, cells were placed back in a normoxic (21% 02) incubator for specified time. All treatments were duplicated in a second set of identical plates under normoxic conditions throughout the same test period as controls. To determine optimum conditions for the in vitro studies, pilot studies were performed."}, "DSS-induced colitis": {"test_system": "DSS-induced colitis", "details": "rats, PSTI administration; cited from earlier work"}, "lung tissue": {"test_system": "lung tissue", "assay": "Gut I/R model, lung tissue"}, "[2]": {"test_system": "lipopolysaccharide-stimulated dendritic cells", "details": "lipopolysaccharide-stimulated dendritic cells in vitro; cited from earlier work"}, "[3]": {"test_system": "NSAID-induced gastric injury", "details": "rats, PSTI administration; cited from earlier work"}, "[4]": {"test_system": "polarised Caco-2 monolayers", "assay": "Permeation of horseradish peroxidase (HRP) through the monolayer after H/R", "assay_type": "cell-based, human", "procedure": "as §1\nThe effect of […] PSTI pre-treatment on transepithelial permeability induced by 1 hour of hypoxia followed by 24 hours of normoxia was examined using Caco-2, human polarizing colonic adenocarcinoma cells utilizing two different previously published methods according to Davison et al., 2016, Am J Nutr 2016; 104:526-536. One method determined change in transepithelial electrical resistance (TEER) and the other method analyzed the passage of horseradish peroxidase (HRP) across the epithelial layer. HRP (type II) is a non-digestible macromolecular protein (MW=44 kD) and has previously been used as a tracer in evaluation of epithelial permeability. Each monolayer had TEER and HRP permeability assessed at baseline, at the end of 1 h incubation in an hypoxic (ischemic) chamber and at the end of a 24 h reoxygenation (reperfusion) period. Measurements were taken in triplicate from 4 wells per treatment. Results are expressed as mean+/−SEM."}, "AGS cells [5]": {"test_system": "AGS cells", "assay": "Cell viability (MTT) assay after hypoxia/reperfusion (H/R)", "assay_type": "cell-based, human", "details": "for cell viability in the MTT assay: 4 h hypoxia + 24 h reperfusion", "procedure": "as §1\nCell viability (MTT) assay: Cell viability following H/R was assessed using an MTT assay (3-(4,5-dimethylthiazol-2-yl)-2,5-diphenyltetrazolium bromide) according to Marshall et al., Growth Regul. 1995; 5(2):69-84. The principal of the assay is that viable cells contain NAD(P)H-dependent oxidoreductase enzymes which reduce the MTT reagent to formazan which can be measured spectrophotometrically. At the end of the H/R period, 5 mg/ml MTT in PBS was added to each well of the 96 well plates and incubated at 37° C. for 4 hours, the medium was replaced with 150 μl of DMSO and the absorbance measured at 490 nm. Cell viability was expressed as percentage of the equivalent normoxic control, all results are expressed as mean+/−SEM of six wells.\n(§2) Example 1A: Dose response study: To examine the effect of PSTI on H/R-induced cell injury in vitro, cells were set up in 96 well plates and pre-incubated in SFM containing glucose, with or without 5, 10 or 15 μg/ml PSTI for 1 hour (i.e. PSTI pre-treatment). These concentrations of PSTI were chosen based on previous studies examining cell migration (Marchbank et al., 2007, Am J Pathol 171(5):1462-73). The medium was replaced with SFM without glucose and placed in the hypoxia incubator for 4 hours. At the end of the hypoxia period, medium was replaced with SFM containing glucose for 24 hours at normoxia for the reperfusion period.\nExample 1B: Efficacy of PSTI given pre-, during- or post-hypoxic period. The potential benefits of giving PSTI prior to, during or following the hypoxic period were compared. Cells were either pre-treated with 10 μg/ml PSTI for the 1 hour before hypoxia (Pre), treated with 10 μg/ml PSTI during hypoxia (During) or treated with 10 μg/ml PSTI during the reperfusion stage (Post). Cell Viability (MTT assay) and cell damage (LDH assay) were assessed. Cells were pre-treated with 10 μg/ml PSTI for the 1 hour before hypoxia (Pre), at the time of the start of hypoxic period (During), or added at the start of the reperfusion stage (Post). Cell Viability (MTT assay) and cell damage (LDH assay) were assessed."}, "AGS cells [6]": {"test_system": "AGS cells", "assay": "Lactate dehydrogenase (LDH) cell damage assay after H/R", "assay_type": "cell-based, human", "procedure": "as §1\nLactate dehydrogenase (LDH) assay: Cell damage was assessed using the activity of LDH released into the cell culture medium. LDH is a cytosolic enzyme present in many different cell types. Plasma membrane damage releases LDH into the cell culture media. At the end of the H/R period, supernatant was collected from all wells and LDH activity determined using a Pierce LDH Cytotoxicity Assay Kit (Thermo Fisher Scientific, Hemel Hempstead, UK) following manufacturer's instructions. Results are expressed as LDH activity and presented as mean+/−SEM of six wells.\nas §2, with “At the end of the hypoxia period, medium was replaced with SFM containing glucose for 24 hours at normoxia for the reperfusion period.” left out\nExample 1B: Efficacy of PSTI given pre-, during- or post-hypoxic period. […] Cell Viability (MTT assay) and cell damage (LDH assay) were assessed. […] Cell Viability (MTT assay) and cell damage (LDH assay) were assessed."}, "[7]": {"test_system": "90% small intestine (SI) tissue (non-clamped segment of bowel)", "assay": "Gut I/R model, non-clamped 90% SI site", "details": "90% SI non-clamped, mean ± SEM"}, "[8]": {"details": "IR + PSTI 20 μg/kg ip, mean ± SEM"}, "[9]": {"details": "PSTI 20 μg/kg ip, vs I/R without PSTI"}, "[10]": {"details": "normoxia, PSTI 10 microgram per ml"}}, "note": "Entries after “also recorded” stand apart in the source; their conditions may differ. Marks after values point to notes of the source that are not given here."}
{"substance": "pancreatic secretory trypsin inhibitor (DSLGREAKCYNELNGCTKIYDPVCGTDGNTYPNECVLCFENRKRQTSILIQKSGPC; listed as Homo sapiens) [PSTI]", "values": [{"measurement": "Baxα", "setting": "AGS cells [1]", "value": "110.9 +/− 2.79 * $ % normoxic"}, {"measurement": "Bcl2", "setting": "AGS cells [1]", "value": "49.3 +/− 1.91 ** $$ % normoxic"}, {"measurement": "Caspase 3", "setting": "AGS cells [1]", "value": "228.2 +/− 18.72 * $ % normoxic"}, {"measurement": "Caspase 9", "setting": "AGS cells [1]", "value": "119.8 +/− 13.25 * $ % normoxic"}, {"measurement": "Claudin 1", "setting": "AGS cells [1]", "value": "77.3 +/− 3.63 ** $$ % normoxic"}, {"measurement": "HIF1α", "setting": "AGS cells [1]", "value": "145.2 +/− 0.66 ** $$ % normoxic"}, {"measurement": "ICAM1", "setting": "AGS cells [1]", "value": "113.6 +/− 0.12 **^ % normoxic"}, {"measurement": "VEGF", "setting": "AGS cells [1]", "value": "125.82 +/− 2.0 ** $$ % normoxic"}, {"measurement": "ZO1", "setting": "AGS cells [1]", "value": "82.1 +/− 0.98 ** $ % normoxic"}, {"measurement": "hSP70", "setting": "AGS cells [1]", "value": "132.9 +/− 1.05 ** $ % normoxic"}, {"measurement": "DSS-induced colitis", "setting": "DSS-induced colitis", "value": "reduces NSAID-induced gastric injury and DSS-induced colitis"}, {"measurement": "Caspase 3", "setting": "lung tissue; IR + PSTI 20 μg/kg ip 1 h before clamping, mean ± SEM", "value": "0.092 ± 0.022", "unit": "Change in absorbance"}, {"measurement": "Baxα", "setting": "lung tissue; [8]", "value": "3.74 ± 0.21", "unit": "pg/μg total protein"}, {"measurement": "Bcl2", "setting": "lung tissue; [8]", "value": "45.66 ± 3.79", "unit": "pg/μg total protein"}, {"measurement": "Caspase 9", "setting": "lung tissue; [8]", "value": "0.063 ± 0.004", "unit": "Change in absorbance"}, {"measurement": "Claudin 1", "setting": "lung tissue; [8]", "value": "9.63 ± 0.40", "unit": "pg/μg total protein"}, {"measurement": "ZO1", "setting": "lung tissue; [8]", "value": "8.15 ± 0.80", "unit": "pg/μg total protein"}, {"measurement": "histological damage of lung", "setting": "lung tissue; PSTI 20 μg/kg ip 1 h before clamping, vs I/R without PSTI", "value": "markedly truncated these effects; also recorded: protective effects; also recorded: markedly truncated the adverse effects; also recorded: significantly reduced histological scoring of lung damage"}, {"measurement": "MDA levels", "setting": "lung tissue; [9]", "value": "this increase was truncated; also recorded: significantly reduced MDA levels"}, {"measurement": "MPO levels (neutrophil infiltration)", "setting": "lung tissue; [9]", "value": "reduced neutrophil infiltration of the lungs; also recorded: significantly reducing these changes; also recorded: significantly reduced MPO levels"}, {"measurement": "cytokine release of TNFα and IL-12", "setting": "[2]", "value": "reduced cytokine release of TNFα and IL-12"}, {"measurement": "NSAID-induced gastric injury", "setting": "[3]", "value": "reduces NSAID-induced gastric injury"}, {"measurement": "truncation of the increase in HRP permeability", "setting": "[4]; Caco-2, end of the 1 h hypoxic period", "value": "about 54%"}, {"measurement": "truncation of the increase in HRP permeability", "setting": "[4]; Caco-2, final H/R time point (1 h hypoxia + 24 h)", "value": 37, "unit": "%"}, {"measurement": "truncation of the 300% increase in transepithelial permeability (horse radish peroxidase translocation)", "setting": "[4]; Caco-2 monolayers, hypoxia/reperfusion 1 h+24 h, p<0.01", "value": 50, "unit": "%"}, {"measurement": "I/R-induced change in HRP permeability, medium alone vs PSTI", "setting": "[4]; PSTI added to the medium prior to I/R", "value": "significantly greater increases in permeability compared to those that had PSTI added"}, {"measurement": "HRP permeation under normoxic conditions", "setting": "[4]; normoxia", "value": "no effect on TEER or HRP permeation"}, {"measurement": "cell viability in the MTT assay", "setting": "AGS cells [5]; AGS, PSTI 10 μg/ml 1 h before hypoxia (Pre), % of normoxic control, H/R without PSTI 52±2%", "value": "78±2", "unit": "%"}, {"measurement": "cell viability in the MTT assay", "setting": "AGS cells [5]; AGS, PSTI 10 μg/ml during hypoxia period", "value": "66±3", "unit": "%"}, {"measurement": "cell viability in the MTT assay", "setting": "AGS cells [5]; AGS, PSTI 10 μg/ml during the post-hypoxia period", "value": "49±1", "unit": "%"}, {"measurement": "improvement of survival after H/R", "setting": "AGS cells [5]; AGS, RIE1 and Caco-2 cells, hypoxia/reperfusion 4 h+24 h, PSTI 10 μg/ml prior or during hypoxic period, p<0.01", "value": 50, "unit": "%"}, {"measurement": "optimum concentration for reducing cell death (MTT and LDH assays)", "setting": "AGS cells [5]; PSTI 5, 10 or 15 μg/ml given 1 h prior to H/R", "value": 10, "unit": "µg/mL"}, {"measurement": "effect on cell viability / cell death after H/R vs serum free medium", "setting": "AGS cells [5]; PSTI added before (or during) H/R", "value": "reduced hypoxia-reoxygenation-induced cell death; also recorded: significantly increased % cell viability"}, {"measurement": "cell viability of cells not exposed to H/R", "setting": "AGS cells [5]; [10]", "value": "no change in viability or LDH; also recorded: no change in viability"}, {"measurement": "reduction of the rise in LDH", "setting": "AGS cells [6]; AGS, 4 h hypoxia + 24 h reperfusion, PSTI 10 μg/ml 1 h before hypoxia", "value": "37%±2%"}, {"measurement": "effect on cell damage (LDH activity) after H/R vs serum free medium", "setting": "AGS cells [6]; PSTI added before H/R", "value": "significantly decreased cell damage"}, {"measurement": "LDH of cells not exposed to H/R", "setting": "AGS cells [6]; [10]", "value": "no change in viability or LDH; also recorded: no change in % LDH levels"}, {"measurement": "Histological score (0-5)", "setting": "[7]; I/R + PSTI 20 μg/kg ip 1 h before clamping, 30 min ischemia/3 h reperfusion", "value": "0.142 ± 0.142"}, {"measurement": "Bcl2", "setting": "[7]; I/R + PSTI 20 μg/kg ip", "value": "5.55 ± 1.00", "unit": "pg/μg total protein"}, {"measurement": "Caspase 3", "setting": "[7]; I/R + PSTI 20 μg/kg ip", "value": "0.021 ± 0.007", "unit": "Change in absorbance"}, {"measurement": "Caspase 9", "setting": "[7]; I/R + PSTI 20 μg/kg ip", "value": "0.014 ± 0.00052", "unit": "Change in absorbance"}, {"measurement": "Claudin 1", "setting": "[7]; I/R + PSTI 20 μg/kg ip", "value": "0.152 ± 0.014", "unit": "pg/μg total protein"}, {"measurement": "ZO1", "setting": "[7]; I/R + PSTI 20 μg/kg ip", "value": "0.17 ± 0.008", "unit": "pg/μg total protein"}]}
